Source: patent US20070092577A1, “Dietary calcium for reducing the production of reactive oxygen species” (University of Tennessee Research Foundation, priority 2005, published 2007)

Legend:
3T3-L1 adipocytes = assay: DNA synthesis / cell proliferation (CyQUANT); assay type: cell-based, murine; details: 48 hours
Protocol: 3T3-L1 preadipocytes were incubated at a density of 8000 cells/cm^2 (10 cm^2 dish) and grown in Dulbecco's modified Eagle's medium (DMEM) containing 10% FBS and antibiotics (adipocyte medium) at 37° C. in 5% CO2 in air. Confluent preadipocytes were induced to differentiate with a standard differentiation medium consisting of DMEM-F 10 (1:1, vol/vol) medium supplemented with 1% FBS, 1 μM dexamethasone, IBMX (0.5 mM) and antibiotics (1% Penicillin-Streptomycin). Preadipocytes were maintained in this differentiation medium for 3 days and subsequently cultured in adipocyte medium. Cultures were re-fed every 2-3 days to allow 90% of cells to reach full differentiation before conducting chemical treatment. Chemicals were freshly diluted in adipocyte medium before treatment. Cells were washed with fresh adipocyte medium, re-fed with medium containing the different treatments, and incubated at 37° C. in 5% CO2 in air before analysis. Cell viability was measured via trypan blue exclusion. Cells were plated in DMEM with different treatment in duplicate in 96-well plates. After 48 h, a CyQUANT Cell Proliferation Kit (Molecular Probes, Eugene, Oreg.) was used following the manufacturer's protocol a microplate fluorometer (Packard Instrument Company, Inc., Downers Grove, Ill.) was used to measure CyQUANT fluorescence. Cell viability was determined by Trypan blue exclusion examination.

IL-15 = IL-15 expression in differentiated 3T3-L1 adipocytes; assay type: cell-based, mouse
Protocol: (§1) 3T3-L1 pre-adipocytes were incubated at a density of 8000 cells/cm^2 (10 cm^2 dish) and grown in Dulbecco's modified Eagle's medium (DMEM) containing 10% FBS and antibiotics (adipocyte medium) at 37° C. in 5% CO2 in air. Confluent pre-adipocytes were induced to differentiate with a standard differentiation medium consisting of DMEM-F10 (1:1, vol/vol) medium supplemented with 1% fetal bovine serum (FBS), 1 μM dexamethasone, isobutylmethylxanthine (IBMX) (0.5 mM) and antibiotics (1% Penicillin-Streptomycin). Pre-adipocytes were maintained in this differentiation medium for 3 days and subsequently cultured in adipocyte medium. Cultures were re-fed every 2-3 days to allow 90% cells to reach fully differentiation before conducting chemical treatment. […] Cell viability was measured via trypan blue exclusion. Adipocyte and muscle 18s, TNFα, IL-6, IL-8, IL-15 and adiponectin were quantitatively measured using a smart cycler real-time PCR system (Cepheid, Sunnyvale, Calif.) with a TaqMan 1000 Core Reagent Kit (Applied Biosystems, Branchburg, N.J.). […] Reactions of quantitative RT-PCR for standards and unknown samples were also performed according to the instructions of Smart Cycler System (Cepheid, Sunnyvale, Calif.) and TaqMan Real Time PCR Core Kit (Applied Biosystems, Branchburg, N.J.). The mRNA quantitation for each sample was further normalized using the corresponding 18s quantitation.

adiponectin = assay: Adiponectin expression in differentiated 3T3-L1 adipocytes; assay type: cell-based, mouse; details: 100 nmol/L H2O2 or 1 μmol/L α±tocopherol, 48 h
Protocol: as §1

IL-6 = IL-6 expression in differentiated 3T3-L1 adipocytes; assay type: cell-based, mouse; details: for effect on IL-6 expression: 10 nmol/L, 48 h, adipocytes cultured alone
Protocol: 3T3-L1 pre-adipocytes were incubated at a density of 8000 cells/cm^2 (10 cm^2 dish) and grown in Dulbecco's modified Eagle's medium (DMEM) containing 10% FBS and antibiotics (adipocyte medium) at 37° C. in 5% CO2 in air. Confluent pre-adipocytes were induced to differentiate with a standard differentiation medium consisting of DMEM-F10 (1:1, vol/vol) medium supplemented with 1% fetal bovine serum (FBS), 1 μM dexamethasone, isobutylmethylxanthine (IBMX) (0.5 mM) and antibiotics (1% Penicillin-Streptomycin). Pre-adipocytes were maintained in this differentiation medium for 3 days and subsequently cultured in adipocyte medium. Cultures were re-fed every 2-3 days to allow 90% cells to reach fully differentiation before conducting chemical treatment.
Cells were incubated in serum free medium overnight before chemical treatment. Chemicals were freshly diluted in adipocyte medium before treatment. […] Cell viability was measured via trypan blue exclusion.
Adipocyte and muscle 18s, TNFα, IL-6, IL-8, IL-15 and adiponectin were quantitatively measured using a smart cycler real-time PCR system (Cepheid, Sunnyvale, Calif.) with a TaqMan 1000 Core Reagent Kit (Applied Biosystems, Branchburg, N.J.). The primers and probe sets were obtained from Applied Biosystems TaqMan® Assays-on-Demand™ Gene Expression primers and probe set collection and utilized according to manufacture's instructions. Pooled adipocyte total RNA was serial-diluted in the range of 1.5625-25 ng and used to establish a standard curve; and total RNA for the unknown samples were also diluted in this range. Reactions of quantitative RT-PCR for standards and unknown samples were also performed according to the instructions of Smart Cycler System (Cepheid, Sunnyvale, Calif.) and TaqMan Real Time PCR Core Kit (Applied Biosystems, Branchburg, N.J.). The mRNA quantitation for each sample was further normalized using the corresponding 18s quantitation.
RAW 264 macrophages and 3T3-L1 preadipocytes (American Type Culture Collection) were incubated at a density of 8000 cells/cm2 (10 cm2 dish) and grown in Dulbecco's modified Eagle's medium (DMEM) containing 10% FBS and antibiotics (adipocyte medium) at 37° C. in 5% CO2 in air. […]
Adipocyte and muscle 18s, CD14, TNFα, MIP, M-CSF, IL-6 and MCP-1 were quantitatively measured using a Smart Cycler Real Time PCR System (Cepheid, Sunnyvale, Calif.) with a TaqMan 1000 Core Reagent Kit (Applied Biosystems, Branchburg, N.J.). […] Reactions of quantitative RT-PCR for standards and unknown samples were also performed according to the instructions of Smart Cycler System (Cepheid, Sunnyvale, Calif.) and TaqMan Real Time PCR Core Kit (Applied Biosystems, Branchburg, N.J.). The mRNA quantitation for each sample was further normalized using the corresponding 18s quantitation.

SMILES | increase of total DNA of cultured cells (3T3-L1 adipocytes; H2O2 100 nmol/L, p<0.001) [%] | effect on IL-15 expression (IL-15; 100 nmol/L H2O2, 48 h) | effect on adiponectin production (adiponectin) | increase of IL-6 expression (IL-6; 100 nmol/L H2O2, 48 h, p<0.001) [%] | effect on H2O2 induced DNA synthesis (3T3-L1 adipocytes; with H2O2 100 nmol/L, α-tocopherol 1 μmol/L, nifedipine 10 μmol/L) | increase of IL-15 as compared to H2O2-treated cells (IL-15; 1 μmol/L α±tocopherol added to 100 nmol/L H2O2, 48 h, P=0.043) [fold] | effect on hydrogen peroxide increased IL-6 expression (IL-6; 1 μmol/L α±tocopherol plus 100 nmol/L H2O2, 48 h, p=0.016) | effect on glucose induced DNA synthesis (3T3-L1 adipocytes; added to glucose 30 mmol/L, nifedipine 10 μmol/L) | effect on IL-6 expression (IL-6) | effect on IL-6 expression (IL-6; listed as 1α, 25-(OH)2-D3)
OO [H2O2, hydrogen peroxide] | 39 | no direct effect | without significant effect | 167 | – | – | – | – | – | –
Cc1c(C)c2c(c(C)c1O)CC[C@@](C)(CCC[C@H](C)CCC[C@H](C)CCCC(C)C)O2 [α-tocopherol] | – | – | increased | – | completely blocked | 2.2 | attenuated | – | – | –
C=C1/C(=C\C=C2/CCC[C@]3(C)[C@@H]([C@H](C)CCCC(C)(C)O)CC[C@@H]23)C[C@@H](O)C[C@@H]1O [calcitriol, 1, 25-Dihydroxyvitamin D] | – | – | – | – | – | – | – | augmented | markedly stimulate | markedly increased
